SMILES strings stand for the structures.

The IC50 is the midpoint of a concentration-inhibition curve. High values mean weaker potency, low ones greater potency. A word on the inhibition: it is the drop in the measured response relative to a control, in per cent. Higher therefore signals a response far below the control.

Holding throughout (type): biochemical
One experiment addresses Lck (Homo sapiens, UniProt P06239). Briefly: ELISA kinase assay with purified kinase expressed in Sf9, poly Glu:Tyr ([…]) substrate.
Another experiment deals with T1, ZAP-70 (Homo sapiens, UniProt P43403).
T1 construct: gene ZAP70
T1 sequence (P43403 1-619): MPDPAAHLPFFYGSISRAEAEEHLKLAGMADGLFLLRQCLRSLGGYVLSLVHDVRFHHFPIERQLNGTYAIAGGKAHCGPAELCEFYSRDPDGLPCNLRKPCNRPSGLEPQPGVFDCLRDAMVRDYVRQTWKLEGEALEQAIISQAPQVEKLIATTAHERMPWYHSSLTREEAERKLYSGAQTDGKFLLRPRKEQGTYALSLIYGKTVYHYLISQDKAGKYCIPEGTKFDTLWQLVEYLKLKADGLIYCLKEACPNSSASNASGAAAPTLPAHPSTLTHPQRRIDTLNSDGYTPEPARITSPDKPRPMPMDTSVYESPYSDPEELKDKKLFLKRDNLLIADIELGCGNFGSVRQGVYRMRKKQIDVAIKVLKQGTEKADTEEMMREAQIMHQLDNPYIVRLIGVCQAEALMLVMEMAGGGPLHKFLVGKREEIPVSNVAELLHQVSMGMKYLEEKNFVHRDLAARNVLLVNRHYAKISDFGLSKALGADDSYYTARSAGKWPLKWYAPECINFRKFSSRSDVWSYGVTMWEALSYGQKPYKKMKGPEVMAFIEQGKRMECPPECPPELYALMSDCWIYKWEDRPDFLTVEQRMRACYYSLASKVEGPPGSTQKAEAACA
The experiment is described as above.

In experiment [1] the target is T2, Dipeptidyl peptidase IV (DPPIV/CD26) (Homo sapiens, UniProt P27487).
T2 construct: gene DPP4
T2 sequence (P27487 39-766): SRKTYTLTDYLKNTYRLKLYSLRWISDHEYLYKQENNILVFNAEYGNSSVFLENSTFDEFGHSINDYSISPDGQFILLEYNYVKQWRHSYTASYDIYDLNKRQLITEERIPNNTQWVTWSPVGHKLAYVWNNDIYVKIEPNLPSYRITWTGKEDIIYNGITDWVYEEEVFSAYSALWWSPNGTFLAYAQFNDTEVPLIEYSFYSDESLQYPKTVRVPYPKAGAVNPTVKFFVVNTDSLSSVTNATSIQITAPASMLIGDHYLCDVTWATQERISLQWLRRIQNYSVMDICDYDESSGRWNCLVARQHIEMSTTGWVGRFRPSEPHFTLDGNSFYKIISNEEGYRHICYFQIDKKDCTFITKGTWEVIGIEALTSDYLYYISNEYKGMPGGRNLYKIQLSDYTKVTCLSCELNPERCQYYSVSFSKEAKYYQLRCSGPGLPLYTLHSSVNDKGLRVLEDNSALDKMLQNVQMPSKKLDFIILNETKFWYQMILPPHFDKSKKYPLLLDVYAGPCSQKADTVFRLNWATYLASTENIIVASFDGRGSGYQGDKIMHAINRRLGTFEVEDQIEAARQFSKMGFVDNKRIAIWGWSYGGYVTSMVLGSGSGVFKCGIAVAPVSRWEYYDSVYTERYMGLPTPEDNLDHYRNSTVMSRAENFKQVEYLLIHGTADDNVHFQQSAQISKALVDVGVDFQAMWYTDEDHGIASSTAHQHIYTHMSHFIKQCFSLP
In words: enzyme assay with H-Gly-Pro-pNA substrate; […] inhibition at […].

Sequence of Lck (P06239 2-509): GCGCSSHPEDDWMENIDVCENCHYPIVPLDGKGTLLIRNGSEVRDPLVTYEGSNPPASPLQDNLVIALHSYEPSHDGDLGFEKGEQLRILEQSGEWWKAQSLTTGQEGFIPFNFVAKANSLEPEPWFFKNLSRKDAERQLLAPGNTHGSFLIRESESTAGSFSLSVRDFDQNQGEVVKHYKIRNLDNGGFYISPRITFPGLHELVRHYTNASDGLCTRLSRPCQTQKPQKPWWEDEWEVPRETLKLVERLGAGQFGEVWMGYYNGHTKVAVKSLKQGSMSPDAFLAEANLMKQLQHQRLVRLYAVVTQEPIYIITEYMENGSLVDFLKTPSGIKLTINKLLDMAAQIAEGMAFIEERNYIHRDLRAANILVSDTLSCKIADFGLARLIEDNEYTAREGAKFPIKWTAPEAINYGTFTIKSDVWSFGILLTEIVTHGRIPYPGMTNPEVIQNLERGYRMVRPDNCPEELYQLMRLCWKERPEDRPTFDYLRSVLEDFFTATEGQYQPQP

As for `Oc1c(Br)cc(-c2cc(Br)c(O)c(Br)c2O)c(O)c1Br` [tebrophen, 3,3',5,5'-tetrabromobiphenyl-2,2',4,4'-tetrol], the IC50 at Lck was 16 µM; against ZAP-70, 0.34 µM. Further, the inhibition at 80 µM in experiment [1] was 41%.

The record behind these values is paper PMC6268439, “Tebrophen — An Old Polyphenol Drug with Anticancer Potential ^†” (Molecules, 2012).
